Test results from patent US7101872B2, “Farnesyl dibenzodiazepinone, and processes for its production” (Ecopia BioSciences, Inc., priority 2003, dated 2006).

Experiments:
[1] = test system: B16 (F10); experiment: MTT cell proliferation, tumor cell lines; assay type: cell-based; conditions: Mus musculus, Melanoma, 96 hrs
Method: (§1) Culture conditions: The cell lines listed in Table 4 were used to characterize the cytotoxicity of ECO-04601 against human and animal tumor cell lines. […] Cells were passaged twice to three times per week. Viability was examined by staining with 0.25% trypan blue and only flasks where cell viability was >95% were used for this study. Cell lines amplification and plating: Tumor cells were seeded (1–3×10^3 cells per 100 μL) in 96-wells flat bottom microtiter plates and incubated at 37° C. and 5% CO2 for 16 hrs before treatment in drug-free medium supplemented with 10% serum. Evaluation of inhibitory activity on cell proliferation: Cells were incubated for 96 hrs with 6 log10-fold concentrations of the test substance starting at 10 μg/ml (20 μM). The test substance stock solution (5 mg/mL) was initially diluted at […] in medium supplemented with serum. Other concentrations were then obtained from 1/10 fold successive dilutions in the same supplemented medium. Cell survival was evaluated 96 h later by replacing the culture media with 150 μL fresh medium containing 10 mM 4-(2-hydroxyethyl)-1-piperazineethanesulfonic acid buffer, pH 7.4. Next, 50 μL of 2.5 mg/mL of 3-(4,5-dimethylthiazo-2-yl)-2,5-diphenyltetrazolium bromide (MTT) in phosphate buffer solution, pH 7.4, was added. After 3–4 h of incubation at 37° C., the medium and soluble MTT was removed, and 200 μL of dimethylsulfoxide was added to dissolve the precipitate of reduced MTT followed by addition of 25 μL glycine buffer (0.1 M glycine plus 0.1 M NaCl, pH 10.5). The absorbance was determined at 570 nm with a microplate reader.

[2] = test system: SK-MEL-1; experiment: MTT cell proliferation, tumor cell lines; assay type: cell-based; conditions: Homo sapiens, SK-MEL-1, Melanoma, 96 hrs
Method: as §1

[3] = test system: SK-MEL 28^VEGF; experiment: MTT cell proliferation, tumor cell lines; assay type: cell-based; conditions: Homo sapiens, Melanoma (expressing VEGF), 96 hrs
Method: as §1

[4] = test system: P388; experiment: MTT cell proliferation, tumor cell lines; assay type: cell-based; conditions: Mus musculus, P388, Leukemia, 96 hrs
Method: as §1

[5] = test system: I83; experiment: MTT cell proliferation, tumor cell lines; assay type: cell-based; conditions: Homo sapiens, I83, Leukemia, 96 hrs
Method: as §1

[6] = test system: K562; experiment: MTT cell proliferation, tumor cell lines; assay type: cell-based; conditions: Homo sapiens, K562, Leukemia myelogeneous, 96 hrs
Method: as §1

[7] = test system: MCF-7; experiment: MTT cell proliferation, tumor cell lines; assay type: cell-based; conditions: Homo sapiens, MCF7, MCF-7, Breast adenocarcinoma, 96 hrs
Method: as §1

[8] = test system: SK-MEL 28; experiment: MTT cell proliferation, tumor cell lines; assay type: cell-based; conditions: Homo sapiens, SK-MEL 28, Melanoma, 96 hrs
Method: as §1

[9] = test system: Panc 10.05; experiment: MTT cell proliferation, tumor cell lines; assay type: cell-based; conditions: Homo sapiens, Panc1005, Panc 10.05, Pancreatic carcinoma, 96 hrs
Method: as §1

[10] = test system: Panc 96; experiment: MTT cell proliferation, tumor cell lines; assay type: cell-based; conditions: Homo sapiens, Panc 96, Pancreatic carcinoma, 96 hrs
Method: as §1

[11] = test system: GL26; experiment: Antiproliferative study, glioma cell lines (MTT); assay type: cell-based, Human; conditions: Mus musculus, GL26, Glioblastoma, 96 hrs
Method: Cells were passaged once a week. Prior to use the cells were detached from the culture flask by treating with trypsin for five to ten minutes. The cells were counted with a Neubauer glass slide and viability assessed by 0.25% trypan blue exclusion. Only flasks with >95% cell viability, were used in the study. Cell lines amplification and plating: Cells, 5×10^3 cells per well in 100 μL drug-free medium supplemented with 10% serum, were plated in 96-well flat bottom microtiter plates and incubated at 37° C. for 48 hrs before treatment. Evaluation of inhibitory activity on cell proliferation: Cells (in triplicate wells) were incubated 96 hrs with medium containing different concentrations of ECO-04601, starting at 5.0 μg/ml (10 μM). The compound was used in a solution of 1% DMSO in D-MEM or RPMI media (or other equivalent media). […] The optical density was measured before incubation (time 0) and following 96 hrs of incubation with test compound in order to measure the growth rate of each cell line.
At the end of the cell treatment, cell culture media was replaced with 150 μl of fresh medium containing 10 mM of 4-(2-hydroxyethyl)-1-piperazineethanesulfonic acid buffer, pH 7.4. […] The optical density was read in each well using a single wavelength spectrophotometer plate reader at 570 nm. […]

CC(C)=CCC/C(C)=C/CC/C(C)=C/CN1C(=O)c2cccc(O)c2Nc2c(O)cc(O)cc21 [ECO-04601, 10-farnesyl-4,6,8-trihydroxy-dibenzodiazepin-11-one] gave an IC50 [1] of 11.4 µM, an IC50 [2] of 14.1 µM and an IC50 [3] of 14.3 µM. The IC50 [4] was 10.9 µM, the IC50 [5] was 2.7 µM and the IC50 [6] was 8.6 µM. For the same compound, the IC50 [7] was 9.7 µM, the IC50 [8] was 14 µM and the IC50 [9] was 14.2 µM. For the same compound, the IC50 [10] was 12.5 µM and the IC50 [11] was 8.93 ± 1.1 µM.
